Laboratory results published in patent US12692249B2, “WDR5 inhibitors and modulators” (Vanderbilt University, priority 2019, dated 2026).

These compounds were tested on MV4:11 human cancer cell lines (assay: Cellular viability / anti-proliferative assay, CellTiter-Glo, 5 day protocol). Conditions: Homo sapiens, MV4-11, 120 h, MV4:11 cells; 5 day incubation; CellTiter-Glo; mean of at least two replicates; read-out: GI50 on cellular proliferation of MV4:11 human cancer cell lines.
Type: cell-based
Method: Cellular Viability of Human Tumor Cell Lines
Anti-proliferative activity using MLL-harboring cell lines. MV-4-11 and K562 cells are grown in IMDM media supplemented with 10% FBS and 1% penicillin/streptomycin, Molm-13 cells are cultured in RPMI-1640 media supplemented with 10% FBS and 1% penicillin/streptomycin. Viability assays are performed by dispensing 200 cells at 7200 cells/mL into each well of an opaque 384-well plate and adding compounds at the indicated concentrations in a final volume, of 32 μL. and a final concentration of DMSO of 0.3% for all samples. A certain range of compound concentrations is made through a series of 2-fold dilutions starting 30 μM at the highest, total 22 dilutions. After a set incubation period, 5 day protocol, the viability of cells in each well is assessed using the CellTiter-Glo assay (Promega), read on a 96 Microplane Luminometer (Cytation 3, BioTek). Serial dilutions of each cell type are performed in all assays to generate standard curves and the final densities of cells are determined within the dynamic range of the instrument. GI50 values are calculated based on XLfit software (IDBS, Guildford, UK) with Sigmoidal Dose-Response Model. Each compound is tested in minimum of two replicates. Data are expressed as mean.

GI50	Structure (SMILES)
< 20 nM	CCc1cc(C2CCN(C)CC2)c2nc(C)cc(N3CCc4c(cc(Cn5ccnc5)cc4-c4cn(C)nc4C(F)(F)F)C3=O)c2c1 [Example 148, 7-((1H-Imidazol-1-yl)methyl)-2-(6-ethyl-2-methyl-8-(1-methylpiperidin-4-yl)quinolin-4-yl)-5-(1-methyl-3-(trifluoromethyl)-1H-pyrazol-4-yl)-3,4-dihydroisoquinolin-1(2H)-one]
33 nM	COc1cc(C2=CCN(C)CC2)c2nc(C)cc(N3CCc4c(cc(Cn5ccnc5)cc4-c4cn(C)nc4C(F)(F)F)C3=O)c2c1 [Example 154, 7-((1H-Imidazol-1-yl)methyl)-2(6-methoxy-2-methyl-8-(1-methyl-1,2,3,6-tetrahydropyridin-4-yl)quinolin-4-yl)-5-(1-methyl-3-(trifluoromethyl)-1H-pyrazol-4-yl)-3,4-dihydroisoquinolin-1(2H)-one]
59 nM	CCc1cc(C(=O)Nc2nccn2C)c2nccc(N3CCc4c(cc(Cn5ccnc5)cc4-c4cn(C)nc4C(F)(F)F)C3=O)c2c1 [Example 161, 4-(7-((1H-Imidazol-1-yl)methyl)-5-(1-methyl-3-(trifluoromethyl)-1H-pyrazol-4-yl)-1-oxo-3,4-dihydroisoquinolin-2(1H)-yl)-6-ethyl-N-(1-methyl-1H-imidazol-2-yl)quinoline-8-carboxamide]
88 nM	CCOC(=O)c1cc(CC)cc2c(N3CCc4c(cc(Cn5ccnc5)cc4-c4cn(C)nc4C(F)(F)F)C3=O)cc(C)nc12 [Example 162, ethyl 4-(7-((1H-imidazol-1-yl)methyl)-5-(1-methyl-3-(trifluoromethyl)-1H-pyrazol-4-yl)-1-oxo-3,4-dihydroisoquinolin-2(1H)-yl)-6-ethyl-2-methylquinoline-8-carboxylate]
56 nM	CCc1cc(C(=O)NCc2ccncc2)c2nccc(N3CCc4c(cc(Cn5ccnc5)cc4-c4cn(C)nc4C(F)(F)F)C3=O)c2c1 [Example 163, 4-(7-((1H-Imidazol-1-yl)methyl)-5-(1-methyl-3-(trifluoromethyl)-1H-pyrazol-4-yl)-1-oxo-3,4-dihydroisoquinolin-2(1H)-yl)-6-ethyl-N-(pyridin-4-ylmethyl)quinoline-8-carboxamide]
155 nM	CCc1cc(C(=O)NC2CCCC2)c2nccc(N3CCc4c(cc(Cn5ccnc5)cc4-c4cn(C)nc4C(F)(F)F)C3=O)c2c1 [Example 164, 4-(7-((1H-Imidazol-1-yl)methyl)-5-(1-methyl-3-(trifluoromethyl)-1H-pyrazol-4-yl)-1-oxo-3,4-dihydroisoquinolin-2(1)-yl)-N-cyclopentyl-6-ethylquinoline-8-carboxamide]
46 nM	CCc1cc(C(=O)NCCO)c2nccc(N3CCc4c(cc(Cn5ccnc5)cc4-c4cn(C)nc4C(F)(F)F)C3=O)c2c1 [Example 168, 4-(7-((1H-Imidazol-1-yl)methyl)-5-(1-methyl-3-(trifluoromethyl)-1H-pyrazol-4-yl)-1-oxo-3,4-dihydroisoquinolin-2(1H)-yl)-6-ethyl-N-(2-hydroxyethyl)quinoline-8-carboxamide]
212 nM	CCc1cc(C(=O)NCC2CCCC2)c2nccc(N3CCc4c(cc(Cn5ccnc5)cc4-c4cn(C)nc4C(F)(F)F)C3=O)c2c1 [Example 170, 4-(7-((1H-Imidazol-1-yl)methyl)-5-(1-methyl-3-(trifluoromethyl)-1H-pyrazol-4-yl)-1-oxo-3,4-dihydroisoquinolin-2(1H)-yl)-N-(cyclopentylmethyl)-6-ethylquinoline-8-carboxamide]
< 20 nM	CCc1cc(C(=O)NC)c2nc(C)cc(N3CCc4c(cc(Cn5ccnc5)cc4-c4cn(C)nc4C(F)(F)F)C3=O)c2c1 [Example 178]
68 nM	COc1cc(-c2n[nH]c(=O)o2)c2nc(C)cc(N3CCc4c(cc(Cn5ccnc5)cc4-c4cn(C)nc4C(F)(F)F)C3=O)c2c1 [Example 180, 5-(4-(7-((1H-Imidazol-1-yl)methyl)-5-(1-methyl-3-(trifluoromethyl)-1H-pyrazol-4-yl)-1-oxo-3,4-dihydroisoquinolin-2(1H)-yl)-6-methoxy-2-methylquinolin-8-yl)-1,3,4-oxadiazol-2(3-1)-one]
55 nM	CCc1cc(OC)c2nccc(N3CCc4c(cc(Cn5ccnc5)cc4-c4cccnc4C(F)(F)F)C3=O)c2c1 [Example 185, 7-((1H-Imidazol-1-yl)methyl)-2-(6-ethyl-8-methoxyquinolin-4-yl)-5-(2-(trifluoromethyl)pyridin-3-yl)-3,4-dihydroisoquinolin-1(2H)-one]
< 20 nM	COc1cc(N2CCC(NC(C)=O)CC2)c2nc(C)cc(N3CCc4c(cc(Cn5ccnc5)cc4-c4cn(C)nc4C(F)(F)F)C3=O)c2c1 [Example 192, N-(1-(4-(7-((1H-Imidazol-1-yl)methyl)-5-(1-methyl-3-(trifluoromethyl)-1H-pyrazol-4-yl)-1-oxo-3,4-dihydroisoquinolin-2(1H)-yl)-6-methoxy-2-methylquinolin-8-yl)piperidin-4-yl)acetamide]
< 20 nM	CCc1cc(C(=O)NC2CCN(C)C2)c2nccc(N3CCc4c(cc(Cn5ccnc5)cc4-c4cn(C)nc4C(F)(F)F)C3=O)c2c1 (stereo not drawn) [Example 193, 4-(7-((1H-Imidazol-1-yl)methyl)-5-(1-methyl-3-(trifluoromethyl)-1H-pyrazol-4-yl)-1-oxo-3,4-dihydroisoquinolin-2(1H)-yl)-6-ethyl-N-(1-methylpyrrolidin-3-yl)quinoline-8-carboxamide]
> 10000 nM	COc1cc(-c2nnn[nH]2)c2nc(C)cc(N3CCc4c(cc(Cn5ccnc5)cc4-c4cn(C)nc4C(F)(F)F)C3=O)c2c1 [Example 196, 7-((1H-Imidazol-1-yl)methyl)-2-(6-methoxy-2-methyl-8-(1H-tetrazol-5-yl)quinolin-4-yl)-5-(1-methyl-3-(trifluoromethyl)-1H-pyrazol-4-yl)-3,4-dihydroisoquinolin-1(2H)-one]
< 20 nM	COc1cc(C(N)=O)c2nc(C)cc(N3CCc4c(cc(Cn5ccnc5)cc4-c4cn(C)nc4C(F)(F)F)C3=O)c2c1 [Example 198, 4-(7-((1H-Imidazol-1-yl)methyl)-5-(1-methyl-3-(trifluoromethyl)-1H-pyrazol-4-yl)-1-oxo-3,4-dihydroisoquinolin-2(1H)-yl)-6-methoxy-2-methylquinoline-8-carboxamide]
131 nM	CCc1cc(C(=O)NC)c2nccc(N3CCc4c(cc(Cn5ccnc5)cc4-c4cccnc4C(F)(F)F)C3=O)c2c1 [Example 199, 4-(7-((1H-imidazol-1-yl)methyl)-1-oxo-5-(2-(trifluoromethyl)pyridin-3-yl)-3,4-dihydroisoquinolin-2(1H)-yl)-6-ethyl-N-methylquinoline-8-carboxamide]
< 20 nM	COc1cc(C#N)c2nccc(N3CCc4c(cc(Cn5ccnc5)cc4-c4cn(C)nc4C(F)(F)F)C3=O)c2c1 [Example 205]
< 20 nM	CCc1cc(N2CCN(CCOC)CC2)c2nccc(N3CCc4c(cc(Cn5ccnc5)cc4-c4cn(C)nc4C(F)(F)F)C3=O)c2c1 [Example 210]
< 20 nM	CCc1cc(N2CCN(C3COC3)CC2)c2nccc(N3CCc4c(cc(Cn5ccnc5)cc4-c4cn(C)nc4C(F)(F)F)C3=O)c2c1 [Example 215, 7-((1H-Imidazol-1-yl)methyl)-2-(6-ethyl-8-(4-(oxetan-3-yl)piperazin-1-yl)quinolin-4-yl)-5-(1-methyl-3-(trifluoromethyl)-1H-pyrazol-4-yl)-3,4-dihydroisoquinolin-1(2H)-one]
< 20 nM	CCc1cc(C(=O)NC2CN(C(=O)c3ccncc3)C2)c2nccc(N3CCc4c(cc(Cn5ccnc5)cc4-c4cn(C)nc4C(F)(F)F)C3=O)c2c1 [Example 225]
43 nM	COc1cc(C(=O)NC2CN(C(C)=O)C2)c2nccc(N3CCc4c(cc(Cn5ccnc5)cc4-c4cn(C)nc4C(F)(F)F)C3=O)c2c1 [Example 226, 4-(7-((1H-Imidazol-1-yl)methyl)-5-(1-methyl-3-(trifluoromethyl)-1H-pyrazol-4-yl)-1-oxo-3,4-dihydroisoquinolin-2(1H)-yl)-N-(1-acetylazetidin-3-yl)-6-methoxyquinoline-8-carboxamide]
< 20 nM	COc1cc(C(=O)NC2CN(C(=O)c3cscn3)C2)c2nccc(N3CCc4c(cc(Cn5ccnc5)cc4-c4cn(C)nc4C(F)(F)F)C3=O)c2c1 [Example 227]
< 20 nM	CCc1cc(C(=O)NC2CN(C(C)=O)C2)c2nccc(N3CCc4c(cc(Cn5ccnc5)cc4-c4cn(C)nc4C(F)(F)F)C3=O)c2c1 [Example 241]

Same assay, conditions: Homo sapiens, MV4-11, 120 h, read-out: GI50 on cellular proliferation of MV4:11 human cancer cell lines

Structure (SMILES)	GI50
CCc1cc(C(=O)NCCN(C)C)c2nccc(N3CCc4c(cc(Cn5ccnc5)cc4-c4cn(C)nc4C(F)(F)F)C3=O)c2c1 [Example 166, 4-(7-((1H-Imidazol-1-yl)methyl)-5-(1-methyl-3-(trifluoromethyl)-1H-pyrazol-4-yl)-1-oxo-3,4-dihydroisoquinolin-2(1H)-yl)-N-(2-(dimethylamino)ethyl)-6-ethylquinoline-8-carboxamide]	< 20 nM
